Results on 12 molecules are retold here after patent US11078197B2, “5-membered and bicyclic heterocyclic amides as inhibitors of rock” (BRISTOL-MYERS SQUIBB COMPANY, priority 2017, dated 2021).

For this test, the target named is ROCK2 (Homo sapiens (Human), UniProt O75116). Briefly: ROCK2 assay (peptide phosphorylation, LABCHIP 3000 Reader). It is filed as biochemical. The note with it: 5 μM ATP, 1.5 μM peptide substrate, dose-response. The procedure: After incubation, the reaction was terminated by the addition of EDTA and the phosphorylated and non-phosphorylated peptides separated using a LABCHIP®3000 Reader (Caliper Life Sciences). […] Compounds were tested in dose-response format, and the inhibition of kinase activity was calculated at each concentration of compound. […] Representative Examples were tested in the ROCK2 assay described above and found having ROCK2 inhibitory activity.
Chain of ROCK2 (O75116 whole entry, species assumed): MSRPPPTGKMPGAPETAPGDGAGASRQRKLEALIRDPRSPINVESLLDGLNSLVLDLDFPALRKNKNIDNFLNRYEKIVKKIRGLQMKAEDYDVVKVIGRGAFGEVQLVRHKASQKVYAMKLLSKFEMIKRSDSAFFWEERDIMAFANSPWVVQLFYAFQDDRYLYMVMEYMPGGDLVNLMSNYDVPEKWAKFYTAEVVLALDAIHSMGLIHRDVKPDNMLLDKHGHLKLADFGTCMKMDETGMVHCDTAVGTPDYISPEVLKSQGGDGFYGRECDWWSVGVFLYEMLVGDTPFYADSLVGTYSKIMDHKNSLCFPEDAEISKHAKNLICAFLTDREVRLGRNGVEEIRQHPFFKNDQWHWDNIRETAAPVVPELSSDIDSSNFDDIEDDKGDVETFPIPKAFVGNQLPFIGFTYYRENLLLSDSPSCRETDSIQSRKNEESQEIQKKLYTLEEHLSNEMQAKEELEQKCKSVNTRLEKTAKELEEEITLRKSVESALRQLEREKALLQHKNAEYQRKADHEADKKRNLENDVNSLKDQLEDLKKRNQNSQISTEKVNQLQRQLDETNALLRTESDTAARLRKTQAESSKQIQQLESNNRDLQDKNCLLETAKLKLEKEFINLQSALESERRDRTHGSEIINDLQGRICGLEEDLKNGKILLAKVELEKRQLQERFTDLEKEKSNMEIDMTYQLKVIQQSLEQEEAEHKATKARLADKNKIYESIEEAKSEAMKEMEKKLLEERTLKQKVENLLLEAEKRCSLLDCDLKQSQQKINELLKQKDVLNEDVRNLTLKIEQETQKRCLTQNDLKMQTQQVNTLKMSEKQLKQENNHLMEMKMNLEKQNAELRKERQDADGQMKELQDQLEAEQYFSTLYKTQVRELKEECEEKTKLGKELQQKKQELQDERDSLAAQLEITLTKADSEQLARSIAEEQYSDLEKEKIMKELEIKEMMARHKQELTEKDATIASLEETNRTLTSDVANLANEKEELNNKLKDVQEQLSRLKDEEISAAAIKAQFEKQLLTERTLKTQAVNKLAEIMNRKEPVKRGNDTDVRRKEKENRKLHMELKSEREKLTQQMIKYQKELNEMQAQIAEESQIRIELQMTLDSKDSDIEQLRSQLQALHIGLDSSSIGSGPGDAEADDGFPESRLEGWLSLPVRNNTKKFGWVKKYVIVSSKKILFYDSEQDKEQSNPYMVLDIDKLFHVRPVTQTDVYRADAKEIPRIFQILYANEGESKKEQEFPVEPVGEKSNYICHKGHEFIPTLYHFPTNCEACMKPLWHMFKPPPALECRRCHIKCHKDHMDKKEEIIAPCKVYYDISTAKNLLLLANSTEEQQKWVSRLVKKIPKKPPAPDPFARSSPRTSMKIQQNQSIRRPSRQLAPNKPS
Molecule “2-cyclopropyl-4- {[(aR)-6-{4-[(1R)- 1-hydroxyethyl]-2,5- dioxoimidazolidin-1- yl}spiro[3.3]heptan- 2-yl]oxy}-1,3- thiazole-5- carboxamide [Example 109]” displayed an IC50 of 330 nM. In other words, the sub-micromolar range.

Consider `NC(=O)c1cc2sccc2nc1OC1CC2(CC(NC(=O)C3CC(=O)N(Cc4ccc(Cl)cc4)C3)C2)C1` (single isomer, unassigned) [Example 78, N-[6-({6-carbamoylthieno[3,2-b]pyridin-5-yl}oxy)spiro[3.3]heptan-2-yl]-1-[(4-chlorophenyl)methyl]-5-oxopyrrolidine-3-carboxamide], for which the IC50 came out at 3100 nM. Compared with the last molecule, the IC50 is about 9.4-fold higher.

For the molecule `NC(=O)c1cc2sccc2nc1OC1CC2(CC(NC(=O)C3CC(=O)N(Cc4ccc(Cl)cc4)C3)C2)C1` (single isomer, unassigned) [Example 80, N-[6-({6-carbamoylthieno[3,2-b]pyridin-5-yl}oxy)spiro[3.3]heptan-2-yl]-1-[(4-chlorophenyl)methyl]-5-oxopyrrolidine-3-carboxamide], the IC50 was 2340 nM.

On to `CC(C)CC1NC(=O)N([C@H]2C[C@@]3(C[C@H](Oc4nc(C5CC5)sc4C(N)=O)C3)C2)C1=O` (single isomer, unassigned) [Example 110, 2-cyclopropyl-4-{[{aR)-6-[4-(2-methylpropyl)-2,5-dioxoimidazolidin-1-yl]spiro[3.3]heptan-2-yl]oxy}-1,3-thiazole-5-carboxamide], for which the IC50 is 12.2 nM.

`CC(C)CC1NC(=O)N([C@H]2C[C@@]3(C[C@H](Oc4nc(C5CC5)sc4C(N)=O)C3)C2)C1=O` (single isomer, unassigned) [Example 111] returned a half-inhibitory concentration (IC50) of 106 nM.

`[H][C@]1(Oc2nc(C)sc2C(N)=O)C[C@]2(C[C@@H](NC(=O)c3cnn(-c4ccc(Cl)cc4)c3C)C2)C1` (stereo partly drawn) [Example 1, 4-(((aR)-6-(1-(4-Chlorophenyl)-5-methyl-1H-pyrazole-4-carboxamido)spiro[3.3]heptan-2-yl)oxy)-2-methylthiazole-5-carboxamide] returned an IC50 of 42.7 nM. This IC50 is about 2.5-fold lower than that of the molecule before.

`[H][C@]1(Oc2nc(C3CC3)sc2C(N)=O)C[C@]2(C[C@@H](NC(=O)c3nc(C(F)(F)F)n4cc(-n5ccccc5=O)ccc34)C2)C1` (stereo partly drawn) [Example 3, 2-Cyclopropyl-4-(((aR)-6-(6-(2-oxopyridin-1(2H)-yl)-3-(trifluoromethyl)imidazo[1,5-a]pyridine-1-carboxamido)spiro[3.3]heptan-2-yl)oxy)thiazole-5-carboxamide] yielded a 50% inhibitory concentration (IC50) of 68.8 nM.

On to `Cn1cc(C(N)=O)c(OC2CC3(CC(NC(=O)c4cnn5cc(OCCC(F)(F)F)ccc45)C3)C2)n1` [Example 4, N-((aR)-6-((4-Carbamoyl-1-methyl-1H-pyrazol-3-yl)oxy)spiro[3.3]heptan-2-yl)-6-(3,3,3-trifluoropropoxy)pyrazolo[1,5-a]pyridine-3-carboxamide], for which half-maximal inhibition (IC50) was put at 20.1 nM.

`CC(C)(O)COc1ccc2c(C(=O)NC3CC4(C3)CC(Oc3nn(CC5CC5)cc3C(N)=O)C4)cnn2c1C1CC1` (stereo not drawn) [Example 5] had an IC50 of 52.6 nM. Against the preceding molecule, the IC50 is about 2.6-fold higher.

Turning to `[H][C@]1(Oc2nn3ccccc3c2C(N)=O)C[C@]2(C[C@@H](NC(=O)c3cnn4c(C5CC5)c(OCC(C)(C)O)ccc34)C2)C1` (stereo partly drawn) [Example 6], half-maximal inhibition (IC50) was put at 25.6 nM.

In turn, `CC(C)(O)COc1ccc2c(C(=O)NC3CC4(C3)CC(Oc3nc5ncccc5cc3C(N)=O)C4)cnn2c1C1CC1` [Example 7, 2-(((aR)-6-(7-Cyclopropyl-6-(2-hydroxy-2-methylpropoxy)pyrazolo[1,5-a]pyridine-3-carboxamido)spiro[3.3]heptan-2-yl)oxy)-1,8-naphthyridine-3-carboxamide] came in with an IC50 of 4.8 nM.

`CC(C)(O)COc1ccc2c(C(=O)NC3CC4(C3)CC(Oc3nc5c(cc3C(N)=O)CCCN5)C4)cnn2c1C1CC1` [Example 8, 2-(((aR)-6-(7-Cyclopropyl-6-(2-hydroxy-2-methylpropoxy)pyrazolo[1,5-a]pyridine-3-carboxamido)spiro[3.3]heptan-2-yl)oxy)-5,6,7,8-tetrahydro-1,8-naphthyridine-3-carboxamide] had an IC50 of 5.4 nM.
